Reference: patent US5324648A, “Substituted isocoumarins as serine protease inhibitors and anti-inflammatory agents” (Georgia Tech Research Corporation, priority 1992, dated 1994)
Read-outs that look alike come from different tables or passages of the source.

What was measured:
[1] = target: T1, human leukocyte elastase (HLE) (Homo sapiens, UniProt P08246); assay: Inactivation of human leukocyte elastase (HLE); assay type: biochemical
T1 construct: from tissue; host or cells: human leukocytes (from the name)
T1 sequence (P08246 30-267): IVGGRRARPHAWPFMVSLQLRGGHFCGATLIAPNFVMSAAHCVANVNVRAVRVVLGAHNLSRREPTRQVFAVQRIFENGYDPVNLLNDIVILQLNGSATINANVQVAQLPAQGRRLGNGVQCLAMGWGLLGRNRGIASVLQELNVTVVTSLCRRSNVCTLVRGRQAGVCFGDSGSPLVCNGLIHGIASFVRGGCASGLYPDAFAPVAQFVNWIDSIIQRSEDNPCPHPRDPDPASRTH

[2] = target: T2, porcine pancreatic elastase (PPE) (Sus scrofa, UniProt P00772); assay: Inactivation of porcine pancreatic elastase (PPE); assay type: biochemical
T2 construct: from tissue; host or cells: porcine pancreas (from the name)

[3] = target: chymotrypsin (Bos taurus, UniProt P00766); assay: Inactivation of chymotrypsin; assay type: biochemical, bovine; conditions: read-out: kobs/[I]
[4] = target: T3, cathepsin G (Homo sapiens, UniProt P08311); assay: Inactivation of cathepsin G; assay type: biochemical; conditions: pH 7.5; Table XII; 2.5% Me2SO, 25° C; [I] 8.7-87 μM; read-out: kobs/[I]
T3 construct: from tissue; host or cells: human leukocytes
T3 sequence (P08311 21-255): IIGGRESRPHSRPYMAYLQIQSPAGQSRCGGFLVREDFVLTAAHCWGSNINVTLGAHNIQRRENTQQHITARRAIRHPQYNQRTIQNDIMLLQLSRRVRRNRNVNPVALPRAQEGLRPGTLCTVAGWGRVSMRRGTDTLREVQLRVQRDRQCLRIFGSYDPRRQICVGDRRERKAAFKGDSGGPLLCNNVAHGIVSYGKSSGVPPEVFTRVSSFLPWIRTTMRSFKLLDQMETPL
Protocol: Inactivation rates of serine proteases by substituted isocoumarins were measured by the incubation method. An aliquot of inhibitor (25 or 50 μl) in Me2 SO was added to a buffered enzyme solution (0.01-2.3 μM) to initiate the inactivation. Aliquots (50 μl) were withdrawn at various intervals and the residual enzymatic activity was measured. Me2 SO concentration in the reaction mixture was 8-12% (v/v). 0.1 Hepes, 0.01M CaCl2, pH 7.5 buffer was utilized for trypsin and coagulation enzymes. 0.1M Hepes, 0.5M NaCl, pH 7.5 was utilized for other serine proteases. […] Peptide thioesters or peptide nitroanilides with appropriate sequence were used as substrates for various serine proteases. All peptide thioester hydrolysis rates were measured with assay mixtures containing 4,4'-dithiodipyridine (ε324 =19800M^-1 cm^-1 ; Grasetti & Murray, Arch. Biochem. Biophys. 119, pp 41-49 (1967)). Peptide 4-nitroanilide nitroanilide hydrolysis was measured at 410 nm (ε410 =8800M^-1 cm^-1 ; Erlanger et al., Arch. Biochem. Biophys. 95, pp 271-278 (1961)). First order inactivation rate constant (kobs) were obtained from plots of ln (vt /vo) vs time, and the correlation coefficients were greater than 0.98.
^a Inactivation rates were measured at 0.1M Hepes, 0.5 NaCl, pH 7.5,
8-12% Me2 SO and 25° C. by incubation method.
and assayed for remaining activity.
^a Inhibition rates were measured in 0.1M Hepes, 0.05M NaCl, pH 7.5
buffer, 8-9% Me2 SO and at 25° C.
Me2 SO, pH 7,5 and at 25° C.
^a Inhibition was measured in 0.1M Hepes, 0.5M NaCl, pH 7.5 buffer,
5-10% Me2 SO and at 25° C. Suc--Val--Pro--Phe--NA (0.48 mM)
was used as the substrate for chymotrypsin and cat G.

[5] = Table XI, pH 7.5, 25° C, [I] 1.4-6.6 μM, per line, read-out: kobs/[I]
[6] = Table XI, pH 7.5, 25° C, [I] 6.3-600 μM, per line, read-out: kobs/[I]
[7] = Table XVI, pH 7.5, 25° C, [I] 0.07-710 μM, read-out: kobs/[I]
[8] = Table XVI, pH 7.5, 25° C, [I] 1.7-58 μM
[9] = pH 7.5, Table XII, 2.5% Me2SO, 25° C, [I] 0.7-1.9 μM, read-out: kobs/[I]

T2 sequence (P00772 27-266): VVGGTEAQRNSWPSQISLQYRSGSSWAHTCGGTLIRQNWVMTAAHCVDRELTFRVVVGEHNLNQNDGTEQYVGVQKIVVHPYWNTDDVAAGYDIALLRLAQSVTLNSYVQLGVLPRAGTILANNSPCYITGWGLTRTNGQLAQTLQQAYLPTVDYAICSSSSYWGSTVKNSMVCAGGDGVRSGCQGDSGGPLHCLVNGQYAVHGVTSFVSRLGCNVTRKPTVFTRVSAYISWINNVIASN

kinact/KI [1, 5] [M⁻¹ s⁻¹] | kinact/KI [2, 6] [M⁻¹ s⁻¹] | Structure (SMILES) | other results
20000 | 3200 | COc1oc(=O)c2cc(NC(=O)NCC(C)C)ccc2c1Cl | 
66000 | 3100 | COc1oc(=O)c2cc(NC(=O)CC(CC(=O)O)c3ccccc3)ccc2c1Cl (stereo not shown) [7-(3-phenylglutaryl)amino-4-chloro-3-methoxyisocoumarin] | 
12000 | 17 | COc1oc(=O)c2cc(NC(=O)N(CCc3ccccc3)Cc3ccccc3)ccc2c1Cl [7-(N-benzyl-N-phenylethylcarbamoyl)amino-4-chloro-3-methoxyisocoumarin] | 
 |  | CC(C)(C)OC(=O)N[C@H](Cc1ccccc1)C(=O)Nc1ccc2c(Cl)c(OCCCBr)oc(=O)c2c1 [7-(N-t-butyloxycarbonyl-D-phenylalanyl)amino-4-chloro-3-(3-bromopropoxy)isocoumarin] | kinact/KI [1, 7]: 1480 M⁻¹ s⁻¹; kinact/KI [3, 8]: 70 M⁻¹ s⁻¹
 |  | CC(C)(C)OC(=O)N[C@@H](Cc1ccccc1)C(=O)Nc1ccc2c(Cl)c(OCCCBr)oc(=O)c2c1 [7-(N-t-butyloxycarbonyl-L-phenylalanyl)amino-4-chloro-3-(3-bromopropoxy)isocoumarin] | kinact/KI [1, 7]: 1320 M⁻¹ s⁻¹; kinact/KI [3, 8]: 490 M⁻¹ s⁻¹
 |  | CCCOc1oc(=O)c2cc(NC(=O)[C@@H](NC(=O)OC(C)(C)C)C(C)C)ccc2c1Cl [7-(N-t-butyloxycarbonyl-valyl)amino-4-chloro-3-propyloxyisocoumarin] | kinact/KI [1, 9]: 64000 M⁻¹ s⁻¹; kinact/KI [4]: 17 M⁻¹ s⁻¹
84000 | 1500 | COc1oc(=O)c2cc(NC(=O)C(NS(=O)(=O)c3ccc(C)cc3)c3ccccc3)ccc2c1Cl (stereo not drawn) [7-(N-tosyl-α-phenylglycyl)amino-4-chloro-3-methoxyisocoumarin] | 
100000 | 2500 | COC(=O)Nc1cccc(C(=O)Nc2ccc3c(Cl)c(OC)oc(=O)c3c2)c1 [7-(m-methoxycarbonylaminobenzoyl)amino-4-chloro-3-methoxyisocoumarin] | 
 |  | CCCOc1oc(=O)c2cc(NC(=O)c3cccc([N+](=O)[O-])c3)ccc2c1Cl [7-(m-nitrobenzoyl)amino-4-chloro-3-propyloxyisocoumarin] | kinact/KI [1, 9]: > 210000 M⁻¹ s⁻¹; kinact/KI [4]: 4 M⁻¹ s⁻¹
 | 7100 | COC(=O)c1ccccc1C(=O)Nc1ccc2c(Cl)c(OC)oc(=O)c2c1 [7-(o-methoxyphthalyl)amino-4-chloro-3-methoxyisocoumarin] | 
52000 | 2700 | COc1oc(=O)c2cc(NC(=O)c3ccccc3C(=O)O)ccc2c1Cl [7-(o-phthalyl)amino-4-chloro-3-methoxyisocoumarin] | 
 | 1700 | CCNC(=O)Nc1ccc2c(Cl)c(OC)oc(=O)c2c1 [7-EtNHCONH-4-chloro-3-methoxyisocoumarin, 7-ethylcarbamoylamino-4-chloro-3-methoxyisocoumarin] | 
47000 | 2000 | CCOC(=O)Nc1ccc2c(Cl)c(OC)oc(=O)c2c1 [7-EtOCONH-4-chloro-3-methoxyisocoumarin, 7-ethoxycarbonylamino-4-chloro-3-methoxyisocoumarin] | 
10000 | 20 | COc1oc(=O)c2cc(NC(=O)OCC3c4ccccc4-c4ccccc43)ccc2c1Cl [7-Fmoc-NH-4-chloro-3-methoxyisocoumarin, 7-(9-fluorenylmethoxycarbonyl)amino-4-chloro-3-methoxyisocoumarin] | 
 | 2100 | COc1oc(=O)c2cc(NC(N)=O)ccc2c1Cl [7-H2 NCONH-4-chloro-3-methoxyisocoumarin, 7-carbamoylamino-4-chloro-3-methoxyisocoumarin] | 
 |  | COc1oc(=O)c2cc(N=C=O)ccc2c1Cl [7-NCO-4-chloro-3-methoxyisocoumarin, 7-isocyanato-4-chloro-3-methoxyisocoumarin] | kinact/KI ([1]; pH 7.5, read-out: kobs/[I]): 9200 M⁻¹ s⁻¹; kinact/KI ([2]; pH 7.5, read-out: kobs/[I]): 650 M⁻¹ s⁻¹
49000 | 7300 | COc1oc(=O)c2cc(NC(=O)Nc3ccccc3)ccc2c1Cl [7-PhNHCONH-4-chloro-3-methoxyisocoumarin, 7-phenylcarbamoylamino-4-chloro-3-methoxyisocoumarin] | 

kinact/KI [1, 5] [M⁻¹ s⁻¹] | kinact/KI [2, 6] [M⁻¹ s⁻¹] | Structure (SMILES) | other results
 |  | COc1oc(=O)c2cc(NC(=O)Oc3ccccc3)ccc2c1Cl [7-PhOCONH-4-chloro-3-methoxyisocoumarin, 7-phenoxycarbonylamino-4-chloro-3-methoxyisocoumarin] | kinact/KI ([1]; pH 7.5, read-out: kobs/[I]): 13000 M⁻¹ s⁻¹; kinact/KI ([2]; pH 7.5, read-out: kobs/[I]): 850 M⁻¹ s⁻¹
 |  | CCCOc1oc(=O)c2cc(NC(=O)CSC)ccc2c1Cl [7-[(2-thiomethyl)acetyl]amino-4-chloro-3-propyloxyisocoumarin] | kinact/KI [1, 9]: > 152000 M⁻¹ s⁻¹; kinact/KI [4]: 28 M⁻¹ s⁻¹
71000 | 260 | COc1oc(=O)c2cc(NC(=O)OCc3ccccc3)ccc2c1Cl [7-benzyloxycarbonylamino-4-chloro-3-methoxyisocoumarin] | 
 |  | CCCOc1oc(=O)c2cc(NC(=S)NCc3ccccc3)ccc2c1Cl [7-benzylthiocarbamoylamino-4-chloro-3-propyloxyisocoumarin] | kinact/KI [1, 9]: > 131000 M⁻¹ s⁻¹
 |  | O=C(CCc1ccccc1)Nc1ccc2c(Cl)c(OCCCBr)oc(=O)c2c1 [7-dihydrocinnamoylamino-4-chloro-3-(3-bromopropoxy)isocoumarin] | kinact/KI ([1]; pH 7.5, Table XVI, biphasic plot, read-out: kobs/[I] (biphasic, first value)): 35600 M⁻¹ s⁻¹; kinact/KI ([1]; pH 7.5, Table XVI, biphasic plot, read-out: kobs/[I] (biphasic, second value)): 9870 M⁻¹ s⁻¹; kinact/KI [3, 8]: 600 M⁻¹ s⁻¹
 | 3500 | CCOC(=O)Nc1ccc2c(Cl)c(OCC)oc(=O)c2c1 [7-ethoxycarbonylamino-4-chloro-3-ethoxyisocoumarin] | 
 | 4200 | CCNC(=S)Nc1ccc2c(Cl)c(OCC)oc(=O)c2c1 [7-ethylthiocarbamoylamino-4-chloro-3-ethoxyisocoumarin] | 
 |  | COc1oc(=O)c2cc(NC(=O)C(F)(F)C(F)(F)C(F)(F)F)ccc2c1Cl [7-heptafluorobutyroylamino-4-chloro-3-methoxyisocoumarin] | kinact/KI ([1]; pH 7.5, read-out: kobs/[I]): 47000 M⁻¹ s⁻¹; kinact/KI ([2]; pH 7.5, read-out: kobs/[I]): 1100 M⁻¹ s⁻¹
9000 | 2300 | COc1oc(=O)c2cc(NC(=O)NC(C)C)ccc2c1Cl [7-isopropylcarbamoylamino-4-chloro-3-methoxyisocoumarin] | 
54000 | 2800 | COC(=O)CCCC(=O)Nc1ccc2c(Cl)c(OC)oc(=O)c2c1 [7-methoxyglutarylamino-4-chloro-3-methoxyisocoumarin] | 
43000 | 2200 | COC(=O)CCC(=O)Nc1ccc2c(Cl)c(OC)oc(=O)c2c1 [7-methoxysuccinylamino-4-chloro-3-methoxyisocoumarin] | 
9460 | 1300 | CNC(=O)Nc1ccc2c(Cl)c(OC)oc(=O)c2c1 [7-methylcarbamoylamino-4-chloro-3-methoxyisocoumarin] | 
 |  | O=C(Nc1ccccc1)Nc1ccc2c(Cl)c(OCCBr)oc(=O)c2c1 [7-phenylcarbamoylamino-4-chloro-3-(2-bromoethoxy)isocoumarin] | kinact/KI ([1]; pH 7.5, Table XVI, second order, equimolar inhibitor and enzyme, read-out: kobs/[I]): 1.2e+06 M⁻¹ s⁻¹; kinact/KI [3, 8]: 12 M⁻¹ s⁻¹; kinact/KI ([2]; Table XVI, pH 7.5, 25° C, [I] 0.04-2.0 mM, read-out: kobs/[I]): 36 M⁻¹ s⁻¹
 |  | CCCOc1oc(=O)c2cc(NC(=O)Nc3ccccc3)ccc2c1Cl [7-phenylcarbamoylamino-4-chloro-3-propyloxyisocoumarin] | kinact/KI [1, 9]: 143000 M⁻¹ s⁻¹; kinact/KI ([3]; pH 7.5, Table XII, 2.5% Me2SO, 25° C, [I] 3.4-70 μM): 6100 M⁻¹ s⁻¹; kinact/KI ([2]; pH 7.5, Table XII, 2.5% Me2SO, 25° C, [I] 34-56 μM, read-out: kobs/[I]): 520 M⁻¹ s⁻¹
 | 12000 | CCOc1oc(=O)c2cc(NC(=S)Nc3ccccc3)ccc2c1Cl [7-phenylthiocarbamoylamino-4-chloro-3-ethoxyisocoumarin] | 
 |  | CCCOc1oc(=O)c2cc(NC(=S)Nc3ccccc3)ccc2c1Cl [7-phenylthiocarbamoylamino-4-chloro-3-propyloxyisocoumarin] | kinact/KI [1, 9]: > 166000 M⁻¹ s⁻¹
